Results taken from patent publication EP3431088A1, “MNTBAP FOR USE IN INDUCING A TRANSIENT IMMUNE TOLERANCE” (priority 2017, dated 2019).

Key:
[1] = system: injected TA muscle; experiment: IM rAAV gene transfer: histology and RT-PCR of injected TA muscle; type: in vivo, C57BL/6 mice; conditions: fifteen days post IM rAAV1 vector injection
[2] = system: lentiviral vectors pseudotyped with HIV-1 envelope protein (HXB2-env); experiment: Transduction of human CD3+ T cells by HXB2-env pseudotyped lentiviral vectors (GFP); type: cell-based; conditions: 400 µM, 72 hours post transduction, vs control
Protocol: CD3^+ T cells, from peripheral blood of healthy individual donors, are purified by positive selection via MACS beads using a magnetic cell sorting system (Miltenyi Biotec). CD3^+ T cells are activated for 3 days at 37°C, 5% CO2 in plates coated with anti-CD3 (10 µg/ml) and anti-CD28 (10 µg/ml) antibodies (both from Miltenyi Biotec) and filled with RPMI 1640 medium supplemented with 10% heat-inactivated fetal calf serum, 100 U/ml penicillin/streptomycin, 2 mM glutamax, 100 IU/ml IL-2 (Miltenyi Biotec). Cells are then transferred on retronectin (20 µg/cm2) coated-plates, in the presence or absence of MnTBAP (400 µM), at a density of 2.5 x 10^5 cells/ml for transduction during 6 h with 6 x 10^7 physical particles (pp)/ml of HXB2-env pseudotyped lentiviral vectors expressing GFP reporter gene under the control of hPGK (human phosphoglycerate kinase 1). After transduction, cells are washed and further incubated for 72 h in fresh culture medium (RPMI 1640 medium supplemented as described above). Cells are then harvested for transduction efficiency analysis by FACS, determined as the percentage of viable (7AAD-) lymphoid cells expressing GFP^+. The data are normalized to be a percentage of the control value (none) from each experiment.

[3] = system: specific T-cell immune responses against OVA peptides; experiment: OVA peptides subcutaneous immunization, IFN-γ ELISPOT on spleen cells; type: in vivo, C57BL/6 mice; conditions: 80 mg/kg IP daily 5 days, vs PBS + OVA / IFA
Protocol: (§1) MnTBAP (Calbiochem, San Diego, USA or Enzo Life Sciences, Farmingdale, USA) is dissolved in 75 mM NaOH to constitute a 20 mM stock solution. MnTBAP is dissolved in the complete medium, used for in vitro treatment, containing RPMI-1640 supplemented with 10% heat-inactivated fetal calf serum, 100 U/ml penicillin/streptomycin, 2 mM glutamax and 50 µM β-mercaptoethanol β-ME). Hypertonic medium, used to block clathrin dependent endocytosis, is complete medium supplemented with 0.45 M sucrose. For in vivo treatment, the stock solution is diluted with PBS and administered at 80 mg/kg intraperitoneally daily during five days. Control animals are injected with equivalent volume of PBS.
A mixture of chicken egg albumin (OVA) peptides is administrated subcutaneously in mice anesthetized by intraperitoneal injection of xylazine (10 mg/kg) and ketamine (100 mg/kg). OVA257-264 (SEQ ID NO: 3; SIINFEKL) (InvivoGen, San Diego, USA) is a class I (Kb)-restricted peptide epitope of OVA presented by the class I major histocompatibility complex molecule (CMH) H-2Kb. OVA323-339 (SEQ ID NO: 4; ISQAVHAAHAEINEAGR) (AnaSpec, San Jose, USA) is an H-2b-restricted OVA class II epitope. 100 µg of each peptide complexed with the same volume of incomplete Freund's adjuvant (IFA) (Sigma-Aldrich) are administrated. Controls are injected with PBS-IFA complexes. OVA peptides- and PBS-IFA complexes are injected two hours or 21 days post first intraperitoneal injection of MnTBAP (or PBS). Eight days post OVA peptides injection, mice are sacrificed and spleens harvested to analyze OVA-specific T cell response.
Spleens are harvested to analyze the cellular immune anti-transgene response by T-cell cytokine response assay. Multiscreen-HA Assay System 96-well Filtration plates (Merck) are coated overnight with 2.5 µg/ml of anti-mouse IFN-γ purified mAb (eBiosciences) at 4°C, washed, and then blocked with RPMI 1640 medium (Life Technologies, Saint-Aubin, France) supplemented with 10% heat inactivated fetal bovine serum (FCS), 100U/ml penicillin/streptomycin (Thermo Fisher Scientific) and 2mM GlutaMAXTM-I (Life technologies) for 2 hours at 37°C. Plates are washed three times with RPMI 1640 medium without FCS. Splenocytes are added in duplicate to the IFN-γ-coated well (1 or 0.5 x 10^6 cells/well) and cultured in presence of Dby or Uty peptide (Genepep, Montpellier, France) at 2 µM or in presence of OVA peptides at 10 µg/ml. As a positive control, cells are stimulated with Concanavalin A (Sigma-Aldrich) at 1 µg/ml in each test. […] Spots are counted using an AID reader (Ceipheid Benelux, Louven, Belgium). Spot forming units (SFU) per million cells for each mouse are calculated as the average value of duplicate measures after subtraction of background values obtained with in vitro unstimulated splenocytes.

[4] = system: CD4; experiment: CD4 cell surface expression by flow cytometry; type: cell-based, murine
Protocol: as §1
After mechanic disruption of the spleen, erythrocytes are eliminated by hypotonic shock with ammonium chloride potassium (ACK) lysing buffer. Then CD4^+ T cells are isolated from spleen cell suspension by negative selection using a CD4^+ T cell isolation kit (Miltenyi Biotec, Paris, France) followed by auto-MACS (Miltenyi Biotec) magnetic sorting, according to the manufacturer's instructions. Purity of isolated CD4^+ T cells is usually > 95%. Cell suspensions are first incubated with anti-FcγRIII/II (Fc Block, 2.4G2, BD Biosciences, Le Pont de Claix, France) monoclonal antibodies (mAb) for 10 minutes at 4°C and then stained for 30 minutes at 4°C in PBS, 0.1% bovine serum albumin (BSA) with Fc Block present, using saturating amounts of rat anti-mouse CD4-Pacific Blue (RM4-5, BD Biosciences) mAb. Gates for CD4^+ populations are set according to isotype controls. Cell viability is determined by staining with 7-aminoactinomycin D (7-AAD; Sigma-Aldrich, St-Quentin-Fallavier, France) or Fixable Viability Dye eFluor 780 (eBiosciences, Paris, France). When indicated, samples are fixed with 1% paraformaldehyde. Samples are acquired on an LSR II flow cytometer (BD Biosciences) and data were analyzed with DIVA software (BD Biosciences).

[5] = injected TA, vs non-treated control groups
[6] = OVA/IFA immunization 21 days after first injection
[7] = OVA/IFA immunization two hours after first injection

In the case of O=C(O)c1ccc(-c2c3nc(c(-c4ccc(C(=O)O)cc4)c4ccc([n-]4)c(-c4ccc(C(=O)O)cc4)c4nc(c(-c5ccc(C(=O)O)cc5)c5ccc2[n-]5)C=C4)C=C3)cc1.[Mn+3] [MnTBAP, manganese [III] tetrakis (4-benzoic acid) porphyrin], the muscle integrity ([1]; 80 mg/kg IP daily 5 days) was “normal muscle integrity”, the “CD8a mRNA expression” value [1, 5] was “decrease of CD8a mRNA expression” and the SGCA transgene expression [1, 5] was “increase of the SGCA transgene expression”. For the same compound, the “transduction efficiency of human T cells (GFP^+ cells)” value [2] was “significantly decreased”, the “IFN-γ production by OVA-specific CD4^+ T cells” value [3, 6] was “produce low levels of IFN-γ with no significant differences” and the “IFN-γ production by OVA-specific CD8^+ T cells” value [3, 6] was “produce IFN-γ with no significant differences”. The “IFN-γ production by OVA-specific CD4^+ T cells” value [3, 7] was “not able to produce IFN-γ”, the “IFN-γ production by OVA-specific CD8^+ T cells” value [3, 7] was “not able to produce IFN-γ” and the “CD4 expression (CD4 GMFI)” value ([4]; 2 hours after washing out MnTBAP ("2 h removed")) was “the decrease of CD4 expression is less important”. For the same compound, the “CD4 expression (CD4 GMFI)” value ([4]; fixed cells, 400 µM, 2 hours ("treated") vs "none") was “decrease of CD4 expression”, the CD4 expression ([4]; hypertonic conditions (RPMI + 0.45 M sucrose), 400 µM, 2 hours, treated vs non-treated) was “no significant difference of CD4 expression” and the “percentage of CD4 expression” value ([4]; normal tonicity (RPMI), 400 µM, 2 hours, vs non-treated) was “decreased”. The “CD4 expression (CD4 GMFI)” value ([4]; overnight after removing MnTBAP ("O/N removed")) was “further less accentuated”, the “CD4 at the cell surface of CD4 expressing cells” value ([4]; splenic enriched CD4+ T cells, 400 µM, 2 hours, vs control) was “disappearance of CD4 at the cell surface” and the CD4 expression ([4]; viable murine splenic enriched CD4+ T cells, 2 hours, 400 µM) was “maximal decrease of CD4 expression”. For the same compound, the CD4 expression ([4]; viable murine splenic enriched CD4+ T cells, 2 hours, increasing doses 0, 100, 200, 400 µM) was “progressive decrease of CD4 expression”.
